# Data reported in ChEMBL document CHEMBL1201862, “PubChem BioAssay data set” (2004).
# Activity calls are given as the source filed them.
# Key:
# [1] = target: Nonstructural protein 1 (Influenza A virus, UniProt Q194T2); assay type: functional, Influenza A virus (A/California/07/2009(H1N1))
# [2] = cytotoxicity in MITF-independent A375 cells – cell-based, CellTiter-Glo luminescence, dry powder, set 4, counter-screen for MITF inhibitor project, dose response (AID 624364); assay type: functional; details: A-375;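 also: A375 melanoma cells are MITF independent so this is a counter screen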
# [3] = target: T1, Histone-lysine N-methyltransferase NSD2 (Homo sapiens, UniProt O96028); assay type: biochemical
# T1 sequence (O96028 whole entry): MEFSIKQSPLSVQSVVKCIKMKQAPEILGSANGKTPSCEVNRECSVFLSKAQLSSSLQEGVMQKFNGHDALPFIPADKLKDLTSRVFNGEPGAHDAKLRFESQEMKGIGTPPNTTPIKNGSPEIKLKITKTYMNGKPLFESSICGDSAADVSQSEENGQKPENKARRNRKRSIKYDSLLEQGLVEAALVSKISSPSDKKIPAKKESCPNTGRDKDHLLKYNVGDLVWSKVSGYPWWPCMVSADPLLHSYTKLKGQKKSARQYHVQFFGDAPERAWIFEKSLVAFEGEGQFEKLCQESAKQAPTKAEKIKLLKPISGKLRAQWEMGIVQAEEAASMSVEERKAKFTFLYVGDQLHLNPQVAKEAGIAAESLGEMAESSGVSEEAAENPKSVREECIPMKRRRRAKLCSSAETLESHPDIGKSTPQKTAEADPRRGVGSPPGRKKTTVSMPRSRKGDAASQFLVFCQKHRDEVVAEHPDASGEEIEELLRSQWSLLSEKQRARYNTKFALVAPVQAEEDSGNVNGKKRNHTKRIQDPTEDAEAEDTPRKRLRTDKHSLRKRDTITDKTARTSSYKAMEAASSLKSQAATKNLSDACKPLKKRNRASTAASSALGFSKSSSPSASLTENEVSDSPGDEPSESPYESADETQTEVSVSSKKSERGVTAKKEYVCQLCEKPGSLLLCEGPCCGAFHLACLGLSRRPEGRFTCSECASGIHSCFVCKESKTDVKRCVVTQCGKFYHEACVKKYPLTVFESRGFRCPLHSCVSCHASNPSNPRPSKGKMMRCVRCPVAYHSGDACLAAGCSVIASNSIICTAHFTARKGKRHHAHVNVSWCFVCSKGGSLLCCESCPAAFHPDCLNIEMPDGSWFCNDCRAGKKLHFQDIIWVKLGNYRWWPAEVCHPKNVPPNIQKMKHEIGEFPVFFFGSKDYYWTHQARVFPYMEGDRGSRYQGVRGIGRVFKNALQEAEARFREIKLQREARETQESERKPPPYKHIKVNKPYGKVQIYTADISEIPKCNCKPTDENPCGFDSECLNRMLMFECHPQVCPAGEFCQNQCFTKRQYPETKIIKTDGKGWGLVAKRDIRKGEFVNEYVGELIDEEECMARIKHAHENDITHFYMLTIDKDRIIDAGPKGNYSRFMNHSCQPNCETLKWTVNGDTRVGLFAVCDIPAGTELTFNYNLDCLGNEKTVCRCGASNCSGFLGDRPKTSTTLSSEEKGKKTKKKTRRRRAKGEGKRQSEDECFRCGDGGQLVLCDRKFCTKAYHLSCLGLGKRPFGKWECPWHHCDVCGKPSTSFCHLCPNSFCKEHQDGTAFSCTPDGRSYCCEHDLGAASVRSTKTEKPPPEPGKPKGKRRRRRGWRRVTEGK
# [4] = viability loss in MITF-independent A375 cells – cell-based, CellTiter-Glo luminescence, dry powder, set 2, counter-screen for MITF inhibitor project, dose response (AID 624489); assay type: functional; details: A-375;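 also: actives are compounds lowering A375 viability meaning general cytotoxicity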
# [5] = target: T2, Microphthalmia-associated transcription factor (Homo sapiens, UniProt O75030); experiment: reducers of TRPM1 reporter luminescence, concentration series – cell-based, SK-MEL-5, cherry-picked, set 3, MITF inhibitor project, dose response (AID 493073); assay type: functional;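 also: SK-MEL-5 melanoma cells with luciferase driven by the MITF target TRPM1 promoter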
# T2 sequence (O75030 whole entry): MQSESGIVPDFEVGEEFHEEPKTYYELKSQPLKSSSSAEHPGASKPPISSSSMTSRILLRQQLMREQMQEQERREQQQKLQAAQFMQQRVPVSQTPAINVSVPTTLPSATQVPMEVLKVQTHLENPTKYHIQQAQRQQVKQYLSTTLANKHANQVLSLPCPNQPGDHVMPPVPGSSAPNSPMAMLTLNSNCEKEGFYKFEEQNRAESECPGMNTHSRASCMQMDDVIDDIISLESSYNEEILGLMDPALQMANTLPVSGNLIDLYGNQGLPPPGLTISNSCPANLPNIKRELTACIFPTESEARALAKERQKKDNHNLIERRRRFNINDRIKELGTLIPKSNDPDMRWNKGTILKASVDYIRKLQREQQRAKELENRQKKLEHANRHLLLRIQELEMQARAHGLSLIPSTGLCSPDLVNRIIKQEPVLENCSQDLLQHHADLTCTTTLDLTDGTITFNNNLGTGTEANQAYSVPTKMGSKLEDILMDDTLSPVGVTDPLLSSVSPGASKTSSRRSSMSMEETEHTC
# [6] = target: T3, Apoptotic protease-activating factor 1 (Homo sapiens, UniProt O14727); assay type: functional
# T3 sequence (O14727 whole entry): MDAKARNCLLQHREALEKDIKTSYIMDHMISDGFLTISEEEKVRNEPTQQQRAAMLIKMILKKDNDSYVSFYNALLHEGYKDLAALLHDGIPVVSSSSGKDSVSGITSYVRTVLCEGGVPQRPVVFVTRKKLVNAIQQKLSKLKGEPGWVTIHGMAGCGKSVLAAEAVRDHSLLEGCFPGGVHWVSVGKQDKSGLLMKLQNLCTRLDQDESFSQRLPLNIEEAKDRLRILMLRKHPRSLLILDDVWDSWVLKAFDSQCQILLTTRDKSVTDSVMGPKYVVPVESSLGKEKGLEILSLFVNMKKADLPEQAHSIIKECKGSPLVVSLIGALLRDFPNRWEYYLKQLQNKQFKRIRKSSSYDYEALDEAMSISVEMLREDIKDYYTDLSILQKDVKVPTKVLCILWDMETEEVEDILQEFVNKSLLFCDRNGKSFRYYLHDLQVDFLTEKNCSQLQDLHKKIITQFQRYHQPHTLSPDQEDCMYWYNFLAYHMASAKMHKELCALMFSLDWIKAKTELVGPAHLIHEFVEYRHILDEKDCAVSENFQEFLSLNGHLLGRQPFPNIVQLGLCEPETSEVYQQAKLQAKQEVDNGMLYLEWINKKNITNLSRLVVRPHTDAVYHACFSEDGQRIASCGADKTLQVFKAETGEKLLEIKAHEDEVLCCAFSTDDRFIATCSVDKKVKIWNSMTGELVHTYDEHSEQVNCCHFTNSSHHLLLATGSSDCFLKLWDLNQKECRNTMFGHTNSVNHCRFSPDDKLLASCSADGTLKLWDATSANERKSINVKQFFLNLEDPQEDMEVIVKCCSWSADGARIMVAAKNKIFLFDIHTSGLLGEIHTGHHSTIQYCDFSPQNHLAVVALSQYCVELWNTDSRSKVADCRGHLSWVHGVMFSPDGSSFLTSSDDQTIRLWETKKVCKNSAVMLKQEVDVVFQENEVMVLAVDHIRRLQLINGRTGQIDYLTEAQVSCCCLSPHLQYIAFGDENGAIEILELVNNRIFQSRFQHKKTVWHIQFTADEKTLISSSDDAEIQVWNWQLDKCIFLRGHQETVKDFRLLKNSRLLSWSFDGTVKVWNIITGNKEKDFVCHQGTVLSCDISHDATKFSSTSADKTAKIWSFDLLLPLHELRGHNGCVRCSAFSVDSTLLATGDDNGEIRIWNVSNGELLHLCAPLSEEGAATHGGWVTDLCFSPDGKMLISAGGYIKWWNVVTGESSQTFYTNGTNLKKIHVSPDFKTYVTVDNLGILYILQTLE
# [7] = target: Glutathione-S-transferase (Schistosoma japonicum, UniProt Q26513); experiment: GST-antibody interaction or FRET quenching – biochemical, TR-FRET, artefact control for Vif-APOBEC3G degradation inhibitor project, dose response (AID 1117362); assay type: functional
# [8] = HIV-1 Vif–A3G interaction blockers – biochemical, TR-FRET, GST-Vif 1-94, biotin-A3G peptide, dose response retest, primary screen (AID 1117319); assay type: functional;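 also: TR-FRET signal of purified GST-Vif binding a biotinylated A3G peptide; inhibitors lower the FRET signal by blocking Vif and A3G binding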
# [9] = IC50 of Artemis nuclease activity blockers – biochemical, fluorescence intensity, dose response (AID 720701); assay type: functional;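 also: Artemis endonuclease enzyme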
# [10] = target: T4, Caspase-6 (Homo sapiens, UniProt P55212); experiment: inhibition of CASP6 peptide cleavage – biochemical, VEID-R110 fluorescence, cherry-pick, dose response (AID 720632)
# T4 sequence (P55212 whole entry): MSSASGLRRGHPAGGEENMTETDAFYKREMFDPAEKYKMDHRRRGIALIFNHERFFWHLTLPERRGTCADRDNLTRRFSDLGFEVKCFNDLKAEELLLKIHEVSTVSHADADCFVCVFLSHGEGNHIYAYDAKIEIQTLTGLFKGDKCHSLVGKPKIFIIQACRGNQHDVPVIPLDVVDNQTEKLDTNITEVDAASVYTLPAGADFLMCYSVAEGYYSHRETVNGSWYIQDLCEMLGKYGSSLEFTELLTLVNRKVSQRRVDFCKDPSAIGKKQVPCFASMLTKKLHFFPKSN
# [11] = target: Caspase-9 (Homo sapiens, UniProt P55211); experiment: inhibitors of purified CASP9 protease – biochemical, fluorescence, plate reader, cherry-picked samples, selectivity assay for caspase-6 inhibitor project, dose response (AID 743293)
# [12] = target: T5, Tyrosyl-DNA phosphodiesterase 2 (Homo sapiens, UniProt O95551); experiment: potency against TDP2 phosphodiesterase activity – biochemical, epi absorbance, IC50, dose response (AID 743297)
# T5 sequence (O95551 whole entry): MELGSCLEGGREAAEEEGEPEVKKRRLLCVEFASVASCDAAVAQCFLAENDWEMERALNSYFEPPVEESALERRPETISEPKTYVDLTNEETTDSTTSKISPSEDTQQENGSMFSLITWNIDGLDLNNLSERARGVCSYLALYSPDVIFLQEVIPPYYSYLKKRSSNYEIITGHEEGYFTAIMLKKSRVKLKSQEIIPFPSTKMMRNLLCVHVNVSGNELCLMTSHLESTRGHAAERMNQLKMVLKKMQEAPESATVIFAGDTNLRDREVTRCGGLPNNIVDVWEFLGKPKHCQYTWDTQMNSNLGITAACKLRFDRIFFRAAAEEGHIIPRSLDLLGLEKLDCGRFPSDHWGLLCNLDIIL
# [13] = target: T6, Caspase-7 (Homo sapiens, UniProt P55210); experiment: caspase-7 enzyme inhibition, selectivity check – biochemical, DEVD-R110 fluorescence, cherry-pick, selectivity assay for caspase-6 inhibitor project, dose response (AID 743295); assay type: functional
# T6 sequence (P55210 whole entry): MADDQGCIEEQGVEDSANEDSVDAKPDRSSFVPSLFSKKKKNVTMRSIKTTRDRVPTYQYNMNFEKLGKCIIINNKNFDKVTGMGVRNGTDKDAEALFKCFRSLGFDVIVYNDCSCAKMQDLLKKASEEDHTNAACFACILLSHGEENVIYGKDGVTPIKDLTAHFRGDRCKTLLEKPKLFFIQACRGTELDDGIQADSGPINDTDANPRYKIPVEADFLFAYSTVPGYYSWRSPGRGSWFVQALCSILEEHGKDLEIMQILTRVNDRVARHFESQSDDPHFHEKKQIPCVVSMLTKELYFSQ
# [14] = target: Caspase-8 (Homo sapiens, UniProt Q14790); experiment: inhibitors of purified CASP8 protease – biochemical, Z-IETD-R110 fluorescence, cherry-picked samples, selectivity assay for caspase-6 inhibitor project, dose response (AID 743294)
# [15] = rise of 2N DNA cells, HeLa – IC50, dose response (AID 1117349); assay type: functional, cell-based
# [16] = rise of 4N DNA cells, HeLa – IC50, dose response (AID 1117351); assay type: functional, cell-based
# [17] = Dd2 parasite growth inhibition in erythrocytes – SYBR Green, dry powder samples, set 9, dose response (AID 1159568); assay type: functional, cell-based
# [18] = growth inhibition of yeast DHODH-expressing 3D7 parasites – SYBR Green, dry powder samples, dose response (AID 1159570); assay type: functional, cell-based;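 also: parasite growth measured after 72 hours of compound exposure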
# [19] = toxicity to human HepG2 hepatoma cells – cell-based, plate reader, dry powder samples, cytotoxicity control, dose response (AID 1159569); assay type: functional;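 also: inhibitor potency with signal falling toward the positive control level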
# [20] = P. falciparum Dd2 growth inhibitors, dose response, SYBR Green, cherry-picked samples (AID 1159567); assay type: functional, cell-based
# [21] = Dd2 malaria parasite growth inhibition potency – SYBR Green, dry powder samples, dose response (AID 1159566); assay type: functional, cell-based;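 also: potency for growth inhibition with lower SYBR green DNA signal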
# [22] = toxicity to human hepatoma HepG2 cells – cell-based, cherry-picked samples, cytotoxicity control, dose response (AID 1159577); assay type: functional
# [23] = growth inhibition of PfATP4-mutant resistant parasites – NITD609-resistant line, SYBR Green, dry powder, dose response (AID 1159571); assay type: functional, cell-based;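 also: parasites synchronized at ring stage by sorbitol before testing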
# Glutathione-S-transferase, sequence (Q26513 whole entry): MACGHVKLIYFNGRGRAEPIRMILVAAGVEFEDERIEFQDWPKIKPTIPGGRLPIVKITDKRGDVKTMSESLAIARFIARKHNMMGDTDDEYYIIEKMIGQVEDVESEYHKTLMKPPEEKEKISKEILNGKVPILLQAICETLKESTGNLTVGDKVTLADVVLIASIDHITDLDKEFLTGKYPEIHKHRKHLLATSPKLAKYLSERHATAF
# Caspase-8, sequence (Q14790 217-374 limits assumed): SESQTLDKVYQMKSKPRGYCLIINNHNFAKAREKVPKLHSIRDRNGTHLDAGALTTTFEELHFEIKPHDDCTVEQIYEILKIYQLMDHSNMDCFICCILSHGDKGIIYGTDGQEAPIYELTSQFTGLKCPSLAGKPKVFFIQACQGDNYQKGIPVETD
# Caspase-8, sequence (Q14790 385-479 limits assumed): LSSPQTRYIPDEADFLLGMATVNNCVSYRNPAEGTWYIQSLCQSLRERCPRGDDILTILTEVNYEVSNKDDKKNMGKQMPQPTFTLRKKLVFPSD
# Nonstructural protein 1, sequence (Q194T2 whole entry): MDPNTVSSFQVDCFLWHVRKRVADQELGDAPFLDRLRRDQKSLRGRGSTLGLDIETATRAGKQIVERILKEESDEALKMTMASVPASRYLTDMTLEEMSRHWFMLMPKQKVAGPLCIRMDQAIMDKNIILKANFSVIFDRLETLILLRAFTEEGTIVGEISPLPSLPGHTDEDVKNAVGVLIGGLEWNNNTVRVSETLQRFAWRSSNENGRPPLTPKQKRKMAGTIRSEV
# Caspase-9, sequence (P55211 1-315 limits assumed): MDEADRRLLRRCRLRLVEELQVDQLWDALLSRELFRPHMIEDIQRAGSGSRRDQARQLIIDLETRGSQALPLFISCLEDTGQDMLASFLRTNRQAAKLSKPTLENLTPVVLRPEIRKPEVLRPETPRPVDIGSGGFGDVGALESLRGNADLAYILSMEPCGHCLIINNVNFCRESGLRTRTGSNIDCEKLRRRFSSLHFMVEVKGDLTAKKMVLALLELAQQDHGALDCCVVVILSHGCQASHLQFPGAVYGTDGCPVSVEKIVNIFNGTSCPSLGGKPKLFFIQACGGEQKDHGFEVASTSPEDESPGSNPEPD
# Caspase-9, sequence (P55211 331-416 limits assumed): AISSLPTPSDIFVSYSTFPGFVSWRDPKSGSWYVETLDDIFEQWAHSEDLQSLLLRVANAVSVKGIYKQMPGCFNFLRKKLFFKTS
compound,measurement,setting,value
O=C1C(NS(=O)(=O)c2ccc(Br)cc2)=C(N2CCCCC2)C(=O)c2ccccc21,IC50,[1],14.5 µM (active)
same,AC50,[2],> 70 µM (inactive)
same,AC50,[3],6.22 µM (active)
same,AC50,[4],> 70 µM (inactive)
CN1CCN(C2=C(NS(=O)(=O)c3ccccc3)C(=O)c3ccccc3C2=O)CC1,AC50,[5],6.9 µM (active)
same,IC50,[6],39.1 µM (active)
same,AC50,[2],44.6 µM (active)
same,AC50,[4],28.1 µM (active)
Cn1c(C(=O)NCCN2CCOCC2)cc2c(=O)n(C)c3ccccc3c21,IC50,[7],> 100 µM (active)
same,IC50,[8],> 100 µM (active)
O=C1c2ccccc2C(=O)N1OCc1cccc(Cl)c1,IC50,[9],2.09 µM (active)
O=C1NC(=O)C(=Cc2ccccc2[N+](=O)[O-])S1,AC50,[10],3.66 µM (active)
same,AC50,[11],16.1 µM (active)
same,IC50,[12],13.6 µM (inactive)
same,AC50,[13],9.01 µM (active)
same,AC50,[14],21 µM (active)
CC(C)OC(=O)OCOP(=O)(CO[C@H](C)Cn1cnc2c(N)ncnc21)OCOC(=O)OC(C)C,IC50,[15],> 10 µM (inactive)
same,IC50,[16],> 10 µM (inactive)
O=C(Nc1ccc(F)cc1)N1C[C@@H]2[C@H](c3ccccc31)[C@@H](CO)N2Cc1ccccc1Cl,AC50,[17],12.3 µM (active)
COc1ccccc1C#Cc1ccc([C@@H]2[C@@H](CO)N3CCCCN(CCC(F)(F)F)C[C@H]23)cc1,AC50,[18],0.418 µM (active)
same,AC50,[19],9.58 µM (active)
same,AC50,[20],1.13 µM (active)
same,AC50,[21],0.254 µM (active)
same,AC50,[22],36.5 µM (active)
same,AC50,[23],0.221 µM (active)
CCCNC(=O)N1[C@H](CO)[C@H](c2ccc(C#Cc3cccc(F)c3)cc2)[C@@H]1C#N,AC50,[17],8.55 µM (active)
